Measured values from patent US7320804B2, “Cough depressant composition containing iron for angiotensin-converting enzyme inhibitor inducing cough” (Samsung Life Public Welfare Foundation Samsund Medical …, priority 2000, dated 2008).
Like-named read-outs stand apart in the source and are kept apart here.

Tested on: ACEI-induced cough
Conditions: for Change of cough score, treatment versus observation period (in words): Wilcoxon's signed rank sum test, iron taking group; for Degree of cough, mean daily cough score: 10 patients on ACEI, observation period 6.14 ± 1.41
Procedure: The research pertaining to the ACEI-induced cough depressant effect by the iron was carried out with nineteen patients taking ACEI. These subjects were patients who developed cough as a result of the side effect caused by taking ACEI. The experiment period was divided into the observation period and the treatment period. 10 of the patients took iron and 9 of the patients took placebo.
The effect of the cough depressant containing iron of the present invention was tested. The cough depressant composition used in the test was ferrous sulphate. Anemia medicine sold as Feroba (trademark), whose ferrous sulphate was removed, was used as the placebo. The 19 tested patients had developed persistent dry cough while taking ACEI for various reasons. They include 6 men and 13 women, whose mean age was 59.9±12.2 years. The patients were divided into groups; the treatment group, which comprised 10 patients taking iron, and the control group, comprising 9 patients taking placebo. The characteristics of the patients are denoted in Table 1. All the patients gave informed consent, and the test was approved by the ethical committee of the Samsung Medical Center and Samsung Biomedical Research Center, Seoul, Korea.
ACEI-induced cough was defined as dry cough that occurred with ACEI use that subsided in seven days after discontinuation of the drug, and reappeared within 48 hours after the re-introduction of the drug and with no abnormality in the lungs and the bronchi.
19 patients completed a cough diary during a 2-week observation period while taking ACEI only. […] Each day was divided into two 12-hour periods. The daytime period began at 8 A.M., and the nighttime period, vice versa. Patients recorded the cough score for each period.
At the end of the observation period, blood samples were drawn from the patient for evaluation of hemoglobin level, hematocrit, iron concentration, total iron binding capacity (“TIBC”), and ferritin concentration. After sampling, they were randomized to either an iron taking group or placebo taking group. 256 mg of ferrous sulfate (of which 80 mg is ferrate) was daily administered to the iron taking group. During the four weeks of the treatment period, subjects were asked to fill in a cough diary in the identical way that they completed the diary in the observation period. After four weeks of the treatment period, blood sampling was repeated for the same evaluation (hemoglobin level, hematocrit, iron concentration, total iron binding capacity (“TIBC”) and ferritin concentration) that was performed in the initiation of the treatment period.
Cough scores from the last week of the observation period and the last week of the treatment period were compared and evaluated. The total sum of the cough scores were calculated from cough scores during the daytime and the nighttime recorded from the range of 0 to 4 for the last week of the observation period and the treatment period, and mean daily cough scores were calculated by dividing the total amount by days. Also, the cough score during the daytime and the nighttime was compared separately. […] The two groups were compared using Wilcoxon's signed rank sum test.

Structure (SMILES): O=S(=O)([O-])[O-].[Fe+2] [Iron, ferrous sulphate]
- Change of cough score, treatment versus observation period (in words) (listed as ferrous sulphate): significantly reduced
- Change of cough score, treatment versus observation period (in words) (listed as iron): significant reduction of dry cough
- Degree of cough, mean daily cough score (last week of 4-week treatment period, 256 mg ferrous sulfate daily, mean ± SD): 3.39 ± 2.20 score
- Degree of cough, mean daily cough score (last week of 4-week treatment period, 256 mg ferrous sulfate daily, mean ± SD, listed as iron): 3.39±2.20 score
- Degree of cough, daytime cough score (last week of 4-week treatment period, 256 mg ferrous sulfate daily, mean ± SD, observation period 2.86 ± 0.86): 1.51 ± 1.00 score
- Degree of cough, nighttime cough score (last week of 4-week treatment period, 256 mg ferrous sulfate daily, mean ± SD, observation period 3.29 ± 0.73): 1.87 ± 1.24 score
- Number of patients showing almost complete abolishment of cough (of 10 patients in the iron taking group): three
- Number of patients showing reduction in cough (decrease in cough score) (of 10 patients who took iron, treatment versus observation period): 9 patients
